The results in this text go back to ChEMBL document CHEMBL3271998, “Quantitative structure-activity relationships among steroids. Investigations of the use of steric parameters” (1976).

The assay concerns Oryctolagus cuniculus. As to the kind of experiment: Progestational activity in immature rabbit assessed as proliferation of uterus administered intramuscularly by haematoxylin and eosin staining-based assay. Type of assay: functional.

For the compound `C=C1C[C@H]2[C@@H]3C=C(F)C4=CC(=O)CC[C@]4(C)[C@H]3CC[C@]2(C)[C@@]1(OC(C)=O)C(C)=O`, the “log(activity)” value was found to be 1.74.
With `C=C1C[C@H]2[C@@H]3C=C(Cl)C4=CC(=O)CC[C@]4(C)[C@H]3CC[C@]2(C)[C@@]1(OC(C)=O)C(C)=O`, the “log(activity)” value came out at 1.89.
Next, `C=C1C[C@H]2[C@@H]3C=CC4=CC(=O)CC[C@]4(C)[C@H]3CC[C@]2(C)[C@@]1(OC(C)=O)C(C)=O`: 0.
Next, `C=C1C[C@H]2[C@@H]3C=C(OCC)C4=CC(=O)CC[C@]4(C)[C@H]3CC[C@]2(C)[C@@]1(OC(C)=O)C(C)=O`: 0; `C=C1C[C@H]2[C@@H]3C=C(SC#N)C4=CC(=O)CC[C@]4(C)[C@H]3CC[C@]2(C)[C@@]1(OC(C)=O)C(C)=O`: 1.08; `C=C1C[C@H]2[C@@H]3C=C(C#N)C4=CC(=O)CC[C@]4(C)[C@H]3CC[C@]2(C)[C@@]1(OC(C)=O)C(C)=O`: 0.78.
With `C=C1C[C@H]2[C@@H]3C=C(C)C4=CC(=O)CC[C@]4(C)[C@H]3CC[C@]2(C)[C@@]1(OC(C)=O)C(C)=O` [MELENGESTROL ACETATE] the figure was 1.96; with `C=C1C[C@H]2[C@@H]3C=C(C=O)C4=CC(=O)CC[C@]4(C)[C@H]3CC[C@]2(C)[C@@]1(OC(C)=O)C(C)=O`, 0; with `C=C1C[C@H]2[C@@H]3C=C(N=[N+]=[N-])C4=CC(=O)CC[C@]4(C)[C@H]3CC[C@]2(C)[C@@]1(OC(C)=O)C(C)=O`, 1.3.
Consider `C=C1C[C@H]2[C@@H]3C=C(OC)C4=CC(=O)CC[C@]4(C)[C@H]3CC[C@]2(C)[C@@]1(OC(C)=O)C(C)=O`, for which the “log(activity)” value amounted to 1.15.
With `C=C1C[C@H]2[C@@H]3C=C(Br)C4=CC(=O)CC[C@]4(C)[C@H]3CC[C@]2(C)[C@@]1(OC(C)=O)C(C)=O` the figure was 1.62; with `C=C1C[C@H]2[C@@H]3C=C(OC(C)=O)C4=CC(=O)CC[C@]4(C)[C@H]3CC[C@]2(C)[C@@]1(OC(C)=O)C(C)=O`, -0.7.
With `C=C1C[C@H]2[C@@H]3C=C(C(F)(F)F)C4=CC(=O)CC[C@]4(C)[C@H]3CC[C@]2(C)[C@@]1(OC(C)=O)C(C)=O` the figure was 1.04.
Next, `C=C1C[C@H]2[C@@H]3C=C(NC(C)=O)C4=CC(=O)CC[C@]4(C)[C@H]3CC[C@]2(C)[C@@]1(OC(C)=O)C(C)=O`: -1.
